Source: patent US12414932B2, “Arsinothricin and methods of treating infections using arsinothricin” (priority 2018, dated 2025)
Like-named read-outs stand apart in the source and are kept apart here.

Key:
[1] = target: glutamine synthetase (GS) from E. coli (Escherichia coli, UniProt P0A9C5); test: biochemical
[2] = target: phosphinothricin N-acetyltransferase (SvPAT) (Streptomyces viridochromogenes, UniProt Q57146); test: N-acetyltransferase assay (DTNB) with SvPAT; assay type: biochemical, Streptomyces viridochromeogenes; settings: as substrate of PAT (SvPAT)
[3] = target: PpArsN1 (Pseudomonas putida, UniProt Q88LK7); settings: for PpArsN1 Specific activity: Substrate 50 μM, 37° C.
[4] = system: P. putida Aars1,2; test: microbe, parasite or virus in culture; assay type: cell-based, Pseudomonas putida; settings: for IC50: read-out: concentration giving 50% inhibition
[5] = system: E. coli AW3110; test: microbe, parasite or virus in culture; assay type: cell-based, Escherichia coli; settings: for IC50: read-out: concentration giving 50% inhibition
[6] = system: Mycobacterium bovis BCG; assay type: cell-based
[7] = system: THP-1 cells

Chain of PpArsN1 (Q88LK7 1-186): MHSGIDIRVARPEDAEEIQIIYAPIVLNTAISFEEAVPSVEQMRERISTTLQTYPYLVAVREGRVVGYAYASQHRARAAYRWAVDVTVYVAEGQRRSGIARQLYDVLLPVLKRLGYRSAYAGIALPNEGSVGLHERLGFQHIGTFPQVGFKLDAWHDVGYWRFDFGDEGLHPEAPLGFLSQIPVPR
Chain of phosphinothricin N-acetyltransferase (SvPAT) (Q57146 whole entry, looked up): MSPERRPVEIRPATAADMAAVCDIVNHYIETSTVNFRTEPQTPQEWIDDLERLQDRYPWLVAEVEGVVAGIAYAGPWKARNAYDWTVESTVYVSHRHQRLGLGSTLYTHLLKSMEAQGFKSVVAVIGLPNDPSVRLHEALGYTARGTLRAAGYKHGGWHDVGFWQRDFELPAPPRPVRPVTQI
Chain of glutamine synthetase (GS) from E. coli (P0A9C5 2-469): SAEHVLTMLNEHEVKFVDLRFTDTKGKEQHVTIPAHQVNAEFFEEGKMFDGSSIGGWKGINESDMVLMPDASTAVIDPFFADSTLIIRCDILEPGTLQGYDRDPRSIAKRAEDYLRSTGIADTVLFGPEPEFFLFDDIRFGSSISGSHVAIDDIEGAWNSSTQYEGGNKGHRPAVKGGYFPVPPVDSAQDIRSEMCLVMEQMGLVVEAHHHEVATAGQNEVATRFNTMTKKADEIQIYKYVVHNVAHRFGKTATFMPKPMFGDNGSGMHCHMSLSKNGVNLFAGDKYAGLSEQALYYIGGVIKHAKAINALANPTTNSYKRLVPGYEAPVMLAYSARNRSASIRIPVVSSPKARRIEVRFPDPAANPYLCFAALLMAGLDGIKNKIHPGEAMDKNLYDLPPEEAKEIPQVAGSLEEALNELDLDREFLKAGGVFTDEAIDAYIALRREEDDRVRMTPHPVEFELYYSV

Compound | Ki [1] | Kcat [2] | PpArsN1 Specific activity [3] | IC50 ([4]; Pseudomonas putida, 24 h) | IC50 ([5]; Escherichia coli, AW3110, 24 h) | Km [2] | affinity of PpArsN1 compared with PT [3] | Kcat ([3]; as substrate of PpArsN1) | Km ([3]; as substrate of PpArsN1) | inhibitory effect on mycobacterial growth [6] | concentration giving nearly complete inhibition [4] | effectiveness as an antibiotic compared with PT [4] | IC50 [4] | concentration giving nearly complete inhibition [5] | effectiveness as an antibiotic compared with PT [5] | toxicity (growth inhibition) compared with As(III) and MAs(III) [5] | IC50 [5] | cytotoxicity in human monocytes [7] | substrate quality for PpArsN1 [3]
CP(=O)(O)CCC(N)C(=O)O (racemic) [PT, phosphinothricin, reference compound] | 400 ± 150 nM | 3.1 ± 0.0 s⁻¹ | 13.9 ± 1.9 nmol/s/mg | 100000 nM | 100000 nM |  |  |  |  |  |  |  |  |  |  |  |  |  | 
C[As](=O)(O)CC[C@H](N)C(=O)O [AST, 2-amino-4-(hydroxymethylarsinoyl) butanoate] |  | 2.3 ± 0.1 s⁻¹ | 49.6 ± 0.8 nmol/s/mg |  |  | 12 ± 2 µM | 100 fold | 1.7 ± 0.2 s⁻¹ | 11 ± 3 µM | comparable with MSO and much higher than PT | 20 µM | approximately 30 fold | ~3000 nM | 20 µM | approximately 30 fold | considerably more inhibitory than inorganic As (III) and is similar to that of highly toxic trivalent methylarsenite (MAs(III)) | ~3000 nM | benign and much less toxic compared to inorganic arsenite | 
methionine sulfoximine [MSO, reference compound] |  |  | 2.1 ± 0.1 nmol/s/mg |  |  |  |  |  |  |  |  |  |  |  |  |  |  |  | poor substrate
